From patent publication US4731451A, “N-((2-oxo-3(2H)benzothiazolyl)methyl)-2-chloroacetanilides” (Monsanto Company, priority 1980, dated 1988)

Key:
Type in all cases: in vivo
Quackgrass = assay: Pre-emergent herbicidal activity (Table II); settings: 2-3 weeks
Protocol: (§1) The pre-emergence tests are conducted as follows:
(§2) A good grade of top soil is placed in aluminum pans and compacted to a depth of three-eighths to one-half inch from the top of the pan. On the top of the soil is placed a predetermined number of seeds or vegetative propagules of various plant species. The soil required to level fill the pans after seeding or adding vegetative propagules is weighed into a pan. A known amount of the active ingredient applied in a solvent or as a wettable powder suspension and the soil are thoroughly mixed, and used as a cover layer for prepared pans. After treatment, the pans are moved into a greenhouse bench where they are watered from below as needed to give adequate moisture for germination and growth.
(§3) Approximately 2-3 weeks after seeding and treating, the plants are observed and the results recorded. The herbicidal rating is obtained by means of fixed scale based on the percent injury of each plant species. The ratings are defined as follows: […]
(§4) The plant species utilized in one set of tests, the data for which are shown in Table II, are identified by letter in accordance with the following legend: […]

Johnsongrass = assay: Pre-emergent herbicidal activity (Table II); settings: 2-3 weeks
Protocol: as §1, §2, §3, §4

Yellow Nutsedge = assay: Pre-emergent herbicidal activity (Table II); settings: 2-3 weeks
Protocol: as §1, §2, §3, §4

Cocklebur [1] = assay: Pre-emergent herbicidal activity (Table II); settings: 2-3 weeks
Protocol: as §1, §2, §3, §4

Morningglory [2] = assay: Pre-emergent herbicidal activity (Table II); settings: 2-3 weeks
Protocol: as §1, §2, §3, §4

Smartweed [3] = assay: Pre-emergent herbicidal activity (Table II); settings: 2-3 weeks
Protocol: as §1, §2, §3, §4

Lambsquarters [4] = assay: Pre-emergent herbicidal activity (Table II); settings: 2-3 weeks
Protocol: as §1, §2, §3, §4

Velvetleaf [5] = assay: Pre-emergent herbicidal activity (Table II); settings: 2-3 weeks
Protocol: as §1, §2, §3, §4

Downy Brome [6] = assay: Pre-emergent herbicidal activity (Table II); settings: 2-3 weeks
Protocol: as §1, §2, §3, §4

Canada Thistle = assay: Pre-emergent herbicidal activity (Table II); settings: 2-3 weeks
Protocol: as §1, §2, §3, §4

Barnyardgrass [7] = assay: Pre-emergent herbicidal activity (Table II); settings: 2-3 weeks
Protocol: as §1, §2, §3, §4

Rice = assay: Pre-emergent herbicidal activity (Table III)
Protocol: as §1, §2, §3
(§5) The compounds were further tested by utilizing the above procedure on the following plant species: […]

Panicum = assay: Pre-emergent herbicidal activity (Table III)
Protocol: as §1, §2, §3, §5

Cocklebur [8] = assay: Pre-emergent herbicidal activity (Table III)
Protocol: as §1, §2, §3, §5

Morningglory [9] = assay: Pre-emergent herbicidal activity (Table III)
Protocol: as §1, §2, §3, §5

Sugarbeet = assay: Pre-emergent herbicidal activity (Table III)
Protocol: as §1, §2, §3, §5

Smartweed [10] = assay: Pre-emergent herbicidal activity (Table III)
Protocol: as §1, §2, §3, §5

Lambsquarters [11] = assay: Pre-emergent herbicidal activity (Table III)
Protocol: as §1, §2, §3, §5

Wheat = assay: Pre-emergent herbicidal activity (Table III)
Protocol: as §1, §2, §3, §5

Soybean = assay: Pre-emergent herbicidal activity (Table III)
Protocol: as §1, §2, §3, §5

Velvetleaf [12] = assay: Pre-emergent herbicidal activity (Table III)
Protocol: as §1, §2, §3, §5

Downy Brome [13] = assay: Pre-emergent herbicidal activity (Table III)
Protocol: as §1, §2, §3, §5

Wild Buckwheat = assay: Pre-emergent herbicidal activity (Table III)
Protocol: as §1, §2, §3, §5

Barnyardgrass [14] = assay: Pre-emergent herbicidal activity (Table III)
Protocol: as §1, §2, §3, §5

Crabgrass = assay: Pre-emergent herbicidal activity (Table III)
Protocol: as §1, §2, §3, §5

Hemp Sesbania = assay: Pre-emergent herbicidal activity (Table III)
Protocol: as §1, §2, §3, §5

Sorghum = assay: Pre-emergent herbicidal activity (Table III)
Protocol: as §1, §2, §3, §5
Also: ranges in brackets are in %.

## CCc1cccc(CC)c1N(Cn1c(=O)sc2ccccc21)C(=O)CCl [Example 3, N--[(2-oxo-3(2H)--benzothiazolyl)methyl]-2'-6'-diethyl-2-chloroacetanilide]
Quackgrass; 5.6 kg/ha
  Herbicidal rating: 0 (0-24)
Quackgrass; 11.2 kg/ha
  Herbicidal rating: 1 (25-49)
Johnsongrass; 5.6 kg/ha
  Herbicidal rating: 0 (0-24)
Johnsongrass; 11.2 kg/ha
  Herbicidal rating: 0 (0-24)
Yellow Nutsedge; 5.6 kg/ha
  Herbicidal rating: 1 (25-49)
Yellow Nutsedge; 11.2 kg/ha
  Herbicidal rating: 1 (25-49)
Cocklebur [1]; 5.6 kg/ha
  Herbicidal rating: 0 (0-24)
Cocklebur [1]; 11.2 kg/ha
  Herbicidal rating: 0 (0-24)
Morningglory [2]; 5.6 kg/ha
  Herbicidal rating: 0 (0-24)
Morningglory [2]; 11.2 kg/ha
  Herbicidal rating: 0 (0-24)
Smartweed [3]; 5.6 kg/ha
  Herbicidal rating: 0 (0-24)
Smartweed [3]; 11.2 kg/ha
  Herbicidal rating: 0 (0-24)
Lambsquarters [4]; 5.6 kg/ha
  Herbicidal rating: 0 (0-24)
Lambsquarters [4]; 11.2 kg/ha
  Herbicidal rating: 0 (0-24)
Velvetleaf [5]; 5.6 kg/ha
  Herbicidal rating: 0 (0-24)
Velvetleaf [5]; 11.2 kg/ha
  Herbicidal rating: 0 (0-24)
Downy Brome [6]; 5.6 kg/ha
  Herbicidal rating: 1 (25-49)
Downy Brome [6]; 11.2 kg/ha
  Herbicidal rating: 1 (25-49)
Canada Thistle; 5.6 kg/ha
  Herbicidal rating: 0 (0-24)
Canada Thistle; 11.2 kg/ha
  Herbicidal rating: 0 (0-24)
Barnyardgrass [7]; 5.6 kg/ha
  Herbicidal rating: 3 (75-100)
Barnyardgrass [7]; 11.2 kg/ha
  Herbicidal rating: 3 (75-100)
Rice; 0.28 kg/ha
  Herbicidal rating: 1 (25-49)
Rice; 1.12 kg/ha
  Herbicidal rating: 0 (0-24)
Rice; 5.6 kg/ha
  Herbicidal rating: 0 (0-24)
Panicum; 0.28 kg/ha
  Herbicidal rating: 0 (0-24)
Panicum; 1.12 kg/ha
  Herbicidal rating: 1 (25-49)
Panicum; 5.6 kg/ha
  Herbicidal rating: 3 (75-100)
Cocklebur [8]; 0.28 kg/ha
  Herbicidal rating: 0 (0-24)
Cocklebur [8]; 1.12 kg/ha
  Herbicidal rating: 0 (0-24)
Cocklebur [8]; 5.6 kg/ha
  Herbicidal rating: 0 (0-24)
Morningglory [9]; 0.28 kg/ha
  Herbicidal rating: 0 (0-24)
Morningglory [9]; 1.12 kg/ha
  Herbicidal rating: 0 (0-24)
Morningglory [9]; 5.6 kg/ha
  Herbicidal rating: 0 (0-24)
Sugarbeet; 0.28 kg/ha
  Herbicidal rating: 0 (0-24)
Sugarbeet; 1.12 kg/ha
  Herbicidal rating: 0 (0-24)
Sugarbeet; 5.6 kg/ha
  Herbicidal rating: 0 (0-24)
Smartweed [10]; 0.28 kg/ha
  Herbicidal rating: 0 (0-24)
Smartweed [10]; 1.12 kg/ha
  Herbicidal rating: 1 (25-49)
Smartweed [10]; 5.6 kg/ha
  Herbicidal rating: 0 (0-24)
Lambsquarters [11]; 0.28 kg/ha
  Herbicidal rating: 0 (0-24)
Lambsquarters [11]; 1.12 kg/ha
  Herbicidal rating: 0 (0-24)
Lambsquarters [11]; 5.6 kg/ha
  Herbicidal rating: 0 (0-24)
Wheat; 0.28 kg/ha
  Herbicidal rating: 0 (0-24)
Wheat; 1.12 kg/ha
  Herbicidal rating: 0 (0-24)
Wheat; 5.6 kg/ha
  Herbicidal rating: 0 (0-24)
Soybean; 0.28 kg/ha
  Herbicidal rating: 0 (0-24)
Soybean; 1.12 kg/ha
  Herbicidal rating: 0 (0-24)
Soybean; 5.6 kg/ha
  Herbicidal rating: 0 (0-24)
Velvetleaf [12]; 0.28 kg/ha
  Herbicidal rating: 0 (0-24)
Velvetleaf [12]; 1.12 kg/ha
  Herbicidal rating: 0 (0-24)
Velvetleaf [12]; 5.6 kg/ha
  Herbicidal rating: 0 (0-24)
Downy Brome [13]; 0.28 kg/ha
  Herbicidal rating: 0 (0-24)
Downy Brome [13]; 1.12 kg/ha
  Herbicidal rating: 1 (25-49)
Downy Brome [13]; 5.6 kg/ha
  Herbicidal rating: 2 (50-74)
Wild Buckwheat; 0.28 kg/ha
  Herbicidal rating: 0 (0-24)
Wild Buckwheat; 1.12 kg/ha
  Herbicidal rating: 0 (0-24)
Wild Buckwheat; 5.6 kg/ha
  Herbicidal rating: 0 (0-24)
Barnyardgrass [14]; 0.28 kg/ha
  Herbicidal rating: 3 (75-100)
Barnyardgrass [14]; 1.12 kg/ha
  Herbicidal rating: 3 (75-100)
Barnyardgrass [14]; 5.6 kg/ha
  Herbicidal rating: 3 (75-100)
Crabgrass; 0.28 kg/ha
  Herbicidal rating: 1 (25-49)
Crabgrass; 1.12 kg/ha
  Herbicidal rating: 2 (50-74)
Crabgrass; 5.6 kg/ha
  Herbicidal rating: 3 (75-100)
Hemp Sesbania; 0.28 kg/ha
  Herbicidal rating: 0 (0-24)
Hemp Sesbania; 1.12 kg/ha
  Herbicidal rating: 0 (0-24)
Hemp Sesbania; 5.6 kg/ha
  Herbicidal rating: 0 (0-24)
Sorghum; 0.28 kg/ha
  Herbicidal rating: 0 (0-24)
Sorghum; 1.12 kg/ha
  Herbicidal rating: 0 (0-24)
Sorghum; 5.6 kg/ha
  Herbicidal rating: 0 (0-24)
